Results as given in patent US20250353820A1, “ANTIVIRAL PYRAZOLOPYRIDINONE COMPOUNDS” (Novartis AG, priority 2019, published 2025).

biological target: human HSV DNA polymerase UL30 (Human herpesvirus 1 (strain 17) (HHV-1) (Human herpes simplex virus 1), UniProt P04293); assay: biochemical; details: 625 pM HSV polymerase, 20 minutes at room temperature; read-out: HSV-polymerase Biochemical IC50

Row | SMILES | IC50 [nM]
1 | CN(CCO)S(=O)(=O)C1(CN2CCc3c(C(=O)NCc4ccc(C#N)cc4)nn(C)c3C2=O)CC1 [Example 146, N-(4-Cyanobenzyl)-6-((1-(N-(2-hydroxyethyl)-N-methylsulfamoyl)cyclopropyl)methyl)-1-methyl-7-oxo-4,5,6,7-tetrahydro-1H-pyrazolo[3,4-c]pyridine-3-carboxamide] | 74
2 | CN(C(CO)CO)S(=O)(=O)C1(CN2CCc3c(C(=O)NCc4ccc(C#N)cc4)nn(C)c3C2=O)CC1 [Example 147, N-(4-Cyanobenzyl)-6-((1-(N-(1,3-dihydroxypropan-2-yl)-N-methylsulfamoyl)cyclopropyl)methyl)-1-methyl-7-oxo-4,5,6,7-tetrahydro-1H-pyrazolo[3,4-c]pyridine-3-carboxamide] | 644
3 | Cn1nc(C(=O)NCc2ccc(Cl)cc2)c2c1C(=O)N(CC1(S(=O)(=O)NC(C)(C)CO)CC1)CC2 [Example 148, N-(4-Chlorobenzyl)-6-((1-(N-(1-hydroxy-2-methylpropan-2-yl)sulfamoyl)cyclopropyl)methyl)-1-methyl-7-oxo-4,5,6,7-tetrahydro-1H-pyrazolo[3,4-c]pyridine-3-carboxamide] | 155
4 | Cn1nc(C(=O)NCc2ccc(C#N)cc2)c2c1C(=O)N(CC1(S(=O)(=O)NC(C)(C)CO)CC1)CC2 [Example 149, N-(4-Cyanobenzyl)-6-((1-(N-(1-hydroxy-2-methylpropan-2-yl)sulfamoyl)cyclopropyl)methyl)-1-methyl-7-oxo-4,5,6,7-tetrahydro-1H-pyrazolo[3,4-c]pyridine-3-carboxamide] | 161
5 | Cn1nc(C(=O)NCc2ccc(Cl)cc2)c2c1C(=O)N(CC1(S(=O)(=O)N3CC(O)C3)CC1)CC2 [Example 150, N-(4-Chlorobenzyl)-6-((1-((3-hydroxyazetidin-1-yl)sulfonyl)cyclopropyl)methyl)-1-methyl-7-oxo-4,5,6,7-tetrahydro-1H-pyrazolo[3,4-c]pyridine-3-carboxamide] | 81
6 | CNS(=O)(=O)C1(CN2CCc3c(C(=O)NCc4ccc(Cl)cc4)nn(C)c3C2=O)CC1 [Example 151, N-(4-Chlorobenzyl)-1-methyl-6-((1-(N-methylsulfamoyl)cyclopropyl)methyl)-7-oxo-4,5,6,7-tetrahydro-1H-pyrazolo[3,4-c]pyridine-3-carboxamide] | 118
7 | Cn1nc(C(=O)NCc2ccc(Cl)cc2)c2c1C(=O)N(CC1(S(=O)(=O)NCC(C)(C)O)CC1)CC2 [Example 152, N-(4-Chlorobenzyl)-6-((1-(N-(2-hydroxy-2-methylpropyl)sulfamoyl)cyclopropyl)methyl)-1-methyl-7-oxo-4,5,6,7-tetrahydro-1H-pyrazolo[3,4-c]pyridine-3-carboxamide] | 827
8 | Cn1nc(C(=O)NCc2ccc(Cl)cc2)c2c1C(=O)N(CC1(S(=O)(=O)NC(C)(CO)CO)CC1)CC2 [Example 153, N-(4-Chlorobenzyl)-6-((1-(N-(1,3-dihydroxy-2-methylpropan-2-yl)sulfamoyl)cyclopropyl)methyl)-1-methyl-7-oxo-4,5,6,7-tetrahydro-1H-pyrazolo[3,4-c]pyridine-3-carboxamide] | 292
9 | Cn1nc(C(=O)NCc2ccc(C#N)cc2)c2c1C(=O)N(CC1(S(=O)(=O)Nc3ccccn3)CC1)CC2 [Example 155, N-(4-Cyanobenzyl)-1-methyl-7-oxo-6-((1-(N-(pyridin-2-yl)sulfamoyl)cyclopropyl)methyl)-4,5,6,7-tetrahydro-1H-pyrazolo[3,4-c]pyridine-3-carboxamide] | 78
10 | Cn1ccc(NS(=O)(=O)C2(CN3CCc4c(C(=O)NCc5ccc(C#N)cc5)nn(C)c4C3=O)CC2)n1 [Example 156] | 62
11 | Cc1cccc(NS(=O)(=O)C2(CN3CCc4c(C(=O)NCc5ccc(C#N)cc5)nn(C)c4C3=O)CC2)n1 [Example 157] | 46
12 | Cn1nc(C(=O)NCc2ccc(Cl)cc2)c2c1C(=O)N(CC1(S(=O)(=O)Nc3ccccn3)CC1)CC2 [Example 158] | 58
13 | COc1cccnc1NS(=O)(=O)C1(CN2CCc3c(C(=O)NCc4ccc(C#N)cc4)nn(C)c3C2=O)CC1 [Example 159] | 423
14 | COc1ccc(C)nc1NS(=O)(=O)C1(CN2CCc3c(C(=O)NCc4ccc(C#N)cc4)nn(C)c3C2=O)CC1 [Example 160] | 301
15 | Cc1ncccc1NS(=O)(=O)C1(CN2CCc3c(C(=O)NCc4ccc(C#N)cc4)nn(C)c3C2=O)CC1 [Example 161] | 40
16 | COc1ncccc1NS(=O)(=O)C1(CN2CCc3c(C(=O)NCc4ccc(C#N)cc4)nn(C)c3C2=O)CC1 [Example 162] | 18
17 | COc1cccc(NS(=O)(=O)C2(CN3CCc4c(C(=O)NCc5ccc(C#N)cc5)nn(C)c4C3=O)CC2)n1 [Example 163] | 36

Row | SMILES | IC50 [nM]
18 | Cc1cccnc1NS(=O)(=O)C1(CN2CCc3c(C(=O)NCc4ccc(C#N)cc4)nn(C)c3C2=O)CC1 [Example 164] | 185
19 | Cc1cc(NS(=O)(=O)C2(CN3CCc4c(C(=O)NCc5ccc(Cl)cc5)nn(C)c4C3=O)CC2)no1 [Example 166] | 12
20 | Cn1nc(C(=O)NCc2ccc(C#N)cc2)c2c1C(=O)N(CC1(S(=O)(=O)Nc3cc(C4CC4)on3)CC1)CC2 [Example 167] | 104
21 | Cn1nc(C(=O)NCc2ccc(C#N)cc2)c2c1C(=O)N(CC1(S(=O)(=O)C3CCOCC3)CC1)CC2 [Example 169] | 238
22 | Cn1nc(C(=O)NCc2ccc(C#N)cc2)c2c1C(=O)N(CC1(S(=O)(=O)C3(C)COC3)CC1)CC2 [Example 172, N-(4-Cyanobenzyl)-1-methyl-6-((1-((3-methyloxetan-3-yl)sulfonyl)cyclopropyl)methyl)-7-oxo-4,5,6,7-tetrahydro-1H-pyrazolo[3,4-c]pyridine-3-carboxamide] | 63
23 | Cn1nc(C(=O)NCc2ccc(C#N)cc2)c2c1C(=O)N(CC1(S(=O)(=O)C3(CO)COC3)CC1)CC2 [Example 173, N-(4-Cyanobenzyl)-6-((1-((3-(hydroxymethyl)oxetan-3-yl)sulfonyl)cyclopropyl)methyl)-1-methyl-7-oxo-4,5,6,7-tetrahydro-1H-pyrazolo[3,4-c]pyridine-3-carboxamide] | 62
24 | Cn1nc(C(=O)NCc2ccc(C#N)cc2)c2c1C(=O)N(CC1(S(=O)(=O)C3(CN)COC3)CC1)CC2 [Example 174, 6-((1-((3-(Aminomethyl)oxetan-3-yl)sulfonyl)cyclopropyl)methyl)-N-(4-cyanobenzyl)-1-methyl-7-oxo-4,5,6,7-tetrahydro-1H-pyrazolo[3,4-c]pyridine-3-carboxamide] | 92
25 | Cn1nc(C(=O)NCc2ccc(Cl)cc2)c2c1C(=O)N(CC1(S(=O)(=O)C(C)(CO)CO)CC1)CC2 [Example 175, N-(4-chlorobenzyl)-6-((1-((1,3-dihydroxy-2-methylpropan-2-yl)sulfonyl)cyclopropyl)methyl)-1-methyl-7-oxo-4,5,6,7-tetrahydro-1H-pyrazolo[3,4-c]pyridine-3-carboxamide] | 27
26 | COCC(C)(COC)S(=O)(=O)C1(CN2CCc3c(C(=O)NCc4ccc(C#N)cc4)nn(C)c3C2=O)CC1 [Example 179, N-(4-Cyanobenzyl)-6-((1-((1,3-dimethoxy-2-methylpropan-2-yl)sulfonyl)cyclopropyl)methyl)-1-methyl-7-oxo-4,5,6,7-tetrahydro-1H-pyrazolo[3,4-c]pyridine-3-carboxamide] | 61
27 | Cn1nc(C(=O)NCc2ccc(C#N)cc2)c2c1C(=O)N(CC1(S(=O)(=O)C(C)(CN)CO)CC1)CC2 (stereo not shown) [Example 183, 6-((1-((1-Amino-3-hydroxy-2-methylpropan-2-yl)sulfonyl)cyclopropyl)methyl)-N-(4-cyanobenzyl)-1-methyl-7-oxo-4,5,6,7-tetrahydro-1H-pyrazolo[3,4-c]pyridine-3-carboxamide] | 65
28 | Cn1nc(C(=O)NCc2ccc(Cl)cc2)c2c1C(=O)N(CC1(S(=O)(=O)C(C)(C)[C@@H](O)CO)CC1)CC2 [Example 190, (S)—N-(4-Chlorobenzyl)-6-((1-((3,4-dihydroxy-2-methylbutan-2-yl)sulfonyl)cyclopropyl)methyl)-1-methyl-7-oxo-4,5,6,7-tetrahydro-1H-pyrazolo[3,4-c]pyridine-3-carboxamide] | 20
29 | Cn1nc(C(=O)NCc2ccc(Cl)cc2)c2c1C(=O)N(CC1(S(=O)(=O)C(C)(C)[C@H](O)CO)CC1)CC2 [Example 191, (R)—N-(4-Chlorobenzyl)-6-((1-((3,4-dihydroxy-2-methylbutan-2-yl)sulfonyl)cyclopropyl)methyl)-1-methyl-7-oxo-4,5,6,7-tetrahydro-1H-pyrazolo[3,4-c]pyridine-3-carboxamide] | 11
30 | Cn1nc(C(=O)NCc2ccc(C#N)cc2)c2c1C(=O)N(CC1(S(=O)(=O)C(C)(C)[C@@H](O)CO)CC1)CC2 [Example 192, (S)—N-(4-cyanobenzyl)-6-((1-((3,4-dihydroxy-2-methylbutan-2-yl)sulfonyl)cyclopropyl)methyl)-1-methyl-7-oxo-4,5,6,7-tetrahydro-1H-pyrazolo[3,4-c]pyridine-3-carboxamide] | 30
31 | Cn1nc(C(=O)NCc2ccc(C#N)cc2)c2c1C(=O)N(CC1(S(=O)(=O)C(C)(C)[C@H](O)CN)CC1)CC2 [Example 198, (R)-6-((1-((4-amino-3-hydroxy-2-methylbutan-2-yl)sulfonyl)cyclopropyl)methyl)-N-(4-cyanobenzyl)-1-methyl-7-oxo-4,5,6,7-tetrahydro-1H-pyrazolo[3,4-c]pyridine-3-carboxamide] | 23
32 | Cn1nc(C(=O)NCc2ccc(C#N)cc2)c2c1C(=O)N(CC1(S(=O)(=O)C3(C(O)CN)CC3)CC1)CC2 (stereo not shown) [Example 208] | 22
33 | Cn1nc(C(=O)NCc2ccc(Cl)cc2)c2c1C(=O)N(CC1(S(=O)(=O)C3(C(O)CN)CC3)CC1)CC2 (stereo not shown) [Example 209] | 16
34 | Cn1nc(C(=O)NCc2ccc(C#N)cc2)c2c1C(=O)N(CC1(S(=O)(=O)C(C)(C)[C@H](N)CO)CC1)CC2 [Example 213, (R)-6-((1-((3-amino-4-hydroxy-2-methylbutan-2-yl)sulfonyl)cyclopropyl)methyl)-N-(4-cyanobenzyl)-1-methyl-7-oxo-4,5,6,7-tetrahydro-1H-pyrazolo[3,4-c]pyridine-3-carboxamide] | 48
